Laboratory results reported in patent US20210017295A1, “BISPECIFIC BINDING AGENTS AND USES THEREOF” (MEMORIAL SLOAN KETTERING CANCER CENTER, priority 2018, published 2021).
Several values for one entry are separate records, joined by “and”; a condition that tells them apart may be missing. Equal values may be shown once.

Assays:
Assay type in all cases: in vivo, mouse
[1] = Toxicity assessment: weight monitoring and removal criteria
HER2(+) BT-474 tumors = test: Biodistribution with modified BsAb / clearing agent time intervals (same-day PRIT); conditions: for average blood uptake / average tumor uptake: 24 h p.i.
Protocol: During a second set of experiments (Table 31), the BsAb timing interval was varied, as well as the timing interval between the clearing agent and ^177Lu-DOTA-Bn. All animals were sacrificed 24 hours-post-injection of ^177Lu-DOTA-Bn.

Hematology panel = conditions: small tumors; single-cycle study, 55.5 MBq; ~85 d
[2] = Histopathology at necropsy and pathology severity scoring; conditions: small tumors; single-cycle study; ~85 d; individual animals
[3] = system: s.c. HER2(−) MDA-MB-468 tumors; conditions: 24 h p.i.
[4] = medium tumors, single-cycle, 33.3 MBq, ~200 d
[5] = small tumors, single-cycle study, 55.5 MBq, ~85 d
[6] = BsAb for 4 hours, then CA vehicle only (total BsAb circulation 8 hours)
[7] = Table 30 group 3 (increased clearing agent dose)
[8] = MDA-MB-468 HER2(−), PRIT + no CA, mean ± SEM

## Nc1ccc(CC2CN(CC(=O)[O-])CCN(CC(=O)[O-])CCN(CC(=O)[O-])CCN2CC(=O)[O-])cc1.[177Lu+3] (centres unmarked) [^177Lu-DOTA-Bn]
[1]; [4]
  animals removed: Discovered deceased: 1/5
  animals removed: Tumor burden: 4/5
  animals removed: Weight loss: 0/5
[1]; [5]
  animals removed: Discovered deceased: 0/5
  animals removed: Tumor burden: 0/5
  animals removed: Weight loss: 0/5
HER2(+) BT-474 tumors; [6]
  Tumor:Blood ratio: ~3.2
  blood uptake: 12.07 % ID/g
  tumor uptake: ~40 % ID/g
HER2(+) BT-474 tumors; Table 30 group 1
  average blood uptake: 0.06
  average tumor uptake: 11.62
HER2(+) BT-474 tumors; [7]
  average blood uptake: 0.03
  average tumor uptake: 4.14
Hematology panel
  HGB: 13.1 g/dL and 12.9 g/dL and 14.3 g/dL and 14.9 g/dL and 14.0 g/dL
  RBC: 8.22 M/μL and 7.74 M/μL and 8.54 M/μL and 8.80 M/μL and 8.32 M/μL
[2]
  Histopathologic findings, Bone marrow: N
  Histopathologic findings, Kidney: N
  Histopathologic findings, Liver: N
  Histopathologic findings, Spleen: HH, 3. and N (2×)
[3]; PRIT, no CA
  tumor uptake in HER2(−) tumors vs HER2(+) BT-474 tumors, fold lower: ~7 fold
[3]; [8]
  ^177Lu activity in Blood: 6.59 ± 1.31 % IA/g
  ^177Lu activity in Bone: 0.62 ± 0.17 % IA/g
  ^177Lu activity in Heart: 1.78 ± 0.29 % IA/g
  ^177Lu activity in Kidneys: 2.39 ± 0.54 % IA/g
  ^177Lu activity in Large Int.: 0.35 ± 0.06 % IA/g
  ^177Lu activity in Liver: 2.69 ± 0.35 % IA/g
  ^177Lu activity in Lungs: 2.44 ± 0.42 % IA/g
  ^177Lu activity in Muscle: 0.50 ± 0.14 % IA/g
  ^177Lu activity in Small Int.: 0.61 ± 0.11 % IA/g
  ^177Lu activity in Spleen: 1.06 ± 0.16 % IA/g
  ^177Lu activity in Stomach: 0.27 ± 0.04 % IA/g
  ^177Lu activity in Tumor: 2.75±0.17 % IA/g
